Data taken from patent publication US8652776B2, “Prediction of QT prolongation based on SNP genotype” (Vanda Pharmaceuticals, Inc., priority 2007, dated 2014).

How the values were obtained:
[1] = system: patients with schizophrenia; test: Change in QTcF from baseline to Day 14 by SNP genotype, phase 3 clinical trial of iloperidone (WGAS); assay type: in vivo, human; details: iloperidone 12 mg bid
Protocol: To identify new genetic markers of drug-induced QT prolongation, a whole genome association study (WGAS) was conducted as part of a phase 3 clinical trial of iloperidone. The clinical trial was a randomized, double-blind, placebo-, and ziprasidone-controlled multicenter study evaluating the efficacy, safety, and tolerability of a 24 mg/day dose of iloperidone administered twice a day (bid) for 28 days to patients with schizophrenia in acute exacerbation.
Therefore, the change in QT interval was calculated between baseline and Day 14. The Fridericia correction (QTcF) was applied, and a generalized linear model (GLM) statistical analysis using baseline as a covariate was performed. […] Analysis was focused on those SNPs located within or close to genes (<10 kb away) in which the minor genotype group included at least 10% of the patients. Six SNPs of interest were identified in the CERKL, SLCO3A1, BRUNOL4, NRG3, NUBPL, and PALLD genes (Table 1). The possibility that changes in the QT interval reflect drug concentration differences could not be excluded because drug exposure at the time of electrocardiography (ECG) was not known. However, the six SNPs identified here are within genes not expected to play roles in drug absorption, metabolism, or excretion. For these SNPs, genotype calls generated by the microarray set were confirmed by sequencing on a random subset of DNA samples of iloperidone-treated patients. The association of a particular genotype class with lower or higher increased QT was consistent between men and women and across races. Additional SNPs with statistical association at P<0.001 were observed within or near the CERKL, SLCO3A1, NRG3, NUBPL, and PALLD genes (FIGS. 1a-f).
Patients 18 to 65 years of age with diagnoses of schizophrenia according to the Diagnostic and Statistical Manual of Mental Disorders, 4th Edition (disorganized [295.10], paranoid [295.30], or undifferentiated [295.90]) were eligible to participate in the trial. Patients were randomly assigned to iloperidone 12 mg twice a day (bid), ziprasidone 80 mg bid (active control), or placebo. Doses were titrated to their respective target doses from Days 1 to 7 and were maintained until Day 28. Participation in the pharmacogenomic analysis was optional. Blood samples were collected, and DNA was extracted (Quest Diagnostics Laboratories, Van Nuys, Calif.) from 432 of 457 patients who consented to the optional WGAS, including 218 patients administered iloperidone. Of these iloperidone-treated patients, 183 (152 men and 31 women) with QT data at Day 14 were part of the WGAS reported here. They included 16 Asian, 69 white, and 91 black or African American patients and 7 patients of other ethnic origins.
Twelve-lead ECG was performed at baseline and on Days 7, 14, 21, and 28. Except at baseline, ECG was performed 2 hours after patients had received the morning dose of study drug. ECG was performed 3 times at baseline and on Day 14, with single measurements obtained for other visits. QTc interval was calculated based on QTcF. The effect of iloperidone on QTc interval was measured by the mean change from baseline in Qtc.
Genetic markers associated with prolongation of QTcF were identified through GLM analysis. The dependent variable was mean change from baseline to Day 14 because the effects on QT were greatest by Day 14, when iloperidone achieves steady state concentration. Baseline QTcF was used as a covariate, and genotype was used as the classifiable variable. The GLM used type 3 sums of squares, with all pairwise differences produced among the least squares means. Because 3 genetic models (AA vs non-AA; AB vs non-AB; BB vs non-BB) were tested for each of the 334,563 SNPs, a total of 1,003,689 tests were performed. The Benjamini and Hochberg (BH) procedure was used to control for the expected proportion of FDR. FDR corrections were obtained from PROC MULTTEST (SAS Institute, Cary, N.C.), which produces BH adjustments to original analytical P values. […]

[2] = system: patients treated with iloperidone; test: Occurrence of torsades de pointes in patients treated with iloperidone; assay type: in vivo, human; details: any patient treated with iloperidone, to date

With `COc1cc(C(C)=O)ccc1OCCCN1CCC(c2noc3cc(F)ccc23)CC1` [Iloperidone, 1-[4-[3-[4-(6-fluoro-1,2-benzisoxazol-3-yl)-1-piperidinyl]propoxy]-3-methoxyphenyl]ethanone] as the molecule, how does the “mean change in QT (QTcF) from baseline to Day 14” value (“mean change in QT (QTcF)” for short) ([1]; rs993648 (CERKL) genotype CC, N=50) read?
Its value is 17.02 ms.

And the “mean change in QT (QTcF)” value ([1]; rs993648 (CERKL) genotype CT (heterozygous), N=80)?
Its value is 4.50 ms.

And the “mean change in QT (QTcF)” value ([1]; rs993648 (CERKL) genotype CT (heterozygous), N=80, listed as iloperidone)?
The value was 4.5 ms.

What about the “mean change in QT (QTcF)” value ([1]; rs993648 (CERKL) genotype Non-CT (homozygous), N=94) of the same molecule?
The value was 17.81 ms.

What about the “mean change in QT (QTcF)” value ([1]; rs993648 (CERKL) genotype Non-CT (homozygous), N=94, listed as iloperidone) of the same molecule?
Its value is 17.8 ms.

And the “mean change in QT (QTcF)” value ([1]; rs993648 (CERKL) genotype TT, N=44)?
Its value is 18.72 ms.

And the “mean change in QT (QTcF)” value ([1]; rs3924426 (SLCO3A1) genotype CC, N=5)?
Its value is -7.00 ms.

What about the “mean change in QT (QTcF)” value ([1]; rs3924426 (SLCO3A1) genotype CT, N=43) of the same molecule?
The value was 3.64 ms.

What about the “mean change in QT (QTcF)” value ([1]; rs3924426 (SLCO3A1) genotype Non-TT, N=48) of the same molecule?
Its value is 2.53 ms.

And the “mean change in QT (QTcF)” value ([1]; rs3924426 (SLCO3A1) genotype Non-TT, N=48, listed as iloperidone)?
The value was 2.5 ms.

And the “mean change in QT (QTcF)” value ([1]; rs3924426 (SLCO3A1) genotype TT, N=135)?
The value was 14.99 ms.

And the “mean change in QT (QTcF)” value ([1]; rs3924426 (SLCO3A1) genotype TT, N=135, listed as iloperidone)?
Its value is 15.0 ms.

What about the “mean change in QT (QTcF)” value ([1]; rs4799915 (BRUNOL4) genotype CC, N=48) of the same molecule?
The value was 2.88 ms.

And the “mean change in QT (QTcF)” value ([1]; rs4799915 (BRUNOL4) genotype CC, N=48, listed as iloperidone)?
Its value is 2.9 ms.

And the “mean change in QT (QTcF)” value ([1]; rs4799915 (BRUNOL4) genotype CT, N=78)?
The value was 13.52 ms.

What about the “mean change in QT (QTcF)” value ([1]; rs4799915 (BRUNOL4) genotype Non-CC, N=132) of the same molecule?
The value was 14.46 ms.

And the “mean change in QT (QTcF)” value ([1]; rs4799915 (BRUNOL4) genotype Non-CC, N=132, listed as iloperidone)?
The value was 14.5 ms.

And the “mean change in QT (QTcF)” value ([1]; rs4799915 (BRUNOL4) genotype TT, N=54)?
Its value is 15.81 ms.

And the “mean change in QT (QTcF)” value ([1]; rs4933824 (NRG3) genotype GG, N=124)?
Its value is 15.33 ms.

And the “mean change in QT (QTcF)” value ([1]; rs4933824 (NRG3) genotype GG, N=124, listed as iloperidone)?
Its value is 15.3 ms.

And the “mean change in QT (QTcF)” value ([1]; rs4933824 (NRG3) genotype GT, N=47)?
Its value is 4.62 ms.

And the “mean change in QT (QTcF)” value ([1]; rs4933824 (NRG3) genotype Non-GG, N=57)?
Its value is 4.41 ms.

What about the “mean change in QT (QTcF)” value ([1]; rs4933824 (NRG3) genotype Non-GG, N=57, listed as iloperidone) of the same molecule?
The value was 4.4 ms.

What about the “mean change in QT (QTcF)” value ([1]; rs4933824 (NRG3) genotype TT, N=10) of the same molecule?
Its value is 3.41 ms.

And the “mean change in QT (QTcF)” value ([1]; rs7142881 (NUBPL) genotype AA, N=28)?
The value was 17.65 ms.

What about the “mean change in QT (QTcF)” value ([1]; rs7142881 (NUBPL) genotype AG, N=71) of the same molecule?
The value was 16.35 ms.

What about the “mean change in QT (QTcF)” value ([1]; rs7142881 (NUBPL) genotype GG, N=79) of the same molecule?
The value was 5.67 ms.

What about the “mean change in QT (QTcF)” value ([1]; rs7142881 (NUBPL) genotype GG, N=79, listed as iloperidone) of the same molecule?
Its value is 5.7 ms.

What about the “mean change in QT (QTcF)” value ([1]; rs7142881 (NUBPL) genotype Non-GG, N=99) of the same molecule?
Its value is 16.71 ms.

And the “mean change in QT (QTcF)” value ([1]; rs7142881 (NUBPL) genotype Non-GG, N=99, listed as iloperidone)?
The value was 16.7 ms.

What about the “mean change in QT (QTcF)” value ([1]; rs17054392 (PALLD) genotype CC, N=2) of the same molecule?
The value was 17.33 ms.

And the “mean change in QT (QTcF)” value ([1]; rs17054392 (PALLD) genotype CT (heterozygous), N=30)?
Its value is -0.69 ms.

What about the “mean change in QT (QTcF)” value ([1]; rs17054392 (PALLD) genotype CT (heterozygous), N=30, listed as iloperidone) of the same molecule?
The value was -0.7 ms.

What about the “mean change in QT (QTcF)” value ([1]; rs17054392 (PALLD) genotype Non-CT, N=153) of the same molecule?
Its value is 14.16 ms.

What about the “mean change in QT (QTcF)” value ([1]; rs17054392 (PALLD) genotype Non-CT, N=153, listed as iloperidone) of the same molecule?
Its value is 14.2 ms.

And the “mean change in QT (QTcF)” value ([1]; rs17054392 (PALLD) genotype TT, N=151)?
Its value is 14.12 ms.

What about the “torsades de pointes in treated patients” value [2] of the same molecule?
The value was “no evidence to date indicates that any patient treated with iloperidone has experienced torsades de pointes”.
